{
  "source": "patent US20180127800A1",
  "about": "(priority 2016, published 2018)",
  "molecular_target": "HIV-1 protease (Human immunodeficiency virus type 1 group M subtype B, UniProt P04585)",
  "format": "cell-based",
  "settings": "Gal4/PR cell line induced by Dox, incubated with protease inhibitor",
  "text": "This type of cleavage was successfully monitored by a previously developed assay for HIV-1. The assay was developed in mammalian cells and relied on an engineered Gal4/protease fusion protein that travels to the nucleus and activates the GFP reporter gene when inhibited. The activation or lack thereof of the reporter GFP gene can be measured and quantified via flow cytometry.\nIn the absence of Dox, rtTA cannot bind to the Tet-Responsive Element (TRE) and consequently, there is no GFP expression from the reporter construct. In the presence of Dox, rtTA binds to TRE and induces GFP expression. […] In the presence of Dox, PR/Gal4 is expressed; however, its autocatalytic activity results in the separation of the Gal4 domains, resulting in turn in the lack of GFP expression. However, in the presence of protease inhibitor (PI), the PR/Gal4 fusion remains intact, resulting in the induction of GFP expression.\nThe plasmids include the rtTA, GFP reporter and Gal4 fusions. The Gal4 plasmids include Gal4 control, Gal4/PRm (mutant) and Gal4/PR.\nIn order to be able to easily discriminate between cleaved and non-cleaved events (or active and non-active protease), the assay relied on the classical Gal4/UAS system broadly used in gene expression experiments. […]",
  "data": [
    {"compound": "CC(C)(C)NC(=O)[C@@H]1CN(Cc2cccnc2)CCN1C[C@@H](O)C[C@@H](Cc1ccccc1)C(=O)N[C@H]1c2ccccc2C[C@H]1O", "note": "[Indinavir]", "values": [
      {"measurement": "GFP expression of the PR cell line (flow cytometry)", "result": "not green when induced by Dox, unless it is also incubated with the PI IDV"}
    ]}
  ]
}
